Reference: PMC12698583, “Efficacy of sulfonamides targeting malic enzyme in an animal model of Chagas disease” (Frontiers in Pharmacology, 2025)

What was measured:
[1] = Lipophilicity assay (LogD at pH 7.4), shake flask; type: physicochemical; details: pH 7.4, n-octanol/phosphate buffer
Experimental: For this assay, an aqueous phosphate buffer solution at pH 7.4, saturated with n-octanol, was prepared, along with an n-octanol solution saturated with the aqueous phase at pH 7.4. Both solutions were mechanically stirred (using a magnetic stir bar and a Corning magnetic stirrer) at room temperature for 24 h, followed by a 24-hour resting period to ensure complete phase separation. Different phase ratios were prepared from these solutions in the following aqueous phase/n-octanol ratios: 1:1, 1:10, 1:100, and 1:300, to ensure that the substances were evaluated under non-saturating conditions. Stock solutions of each compound were prepared in DMSO at a concentration of 20 mM. From these stock solutions, standard solutions at a concentration of 30 µM in phosphate buffer pH 7.4 were obtained and used in each partition system, performed in triplicate. To reach equilibrium, the vials containing the samples were shaken for 90 min at room temperature using a roller shaker (Basic First Lab Orbital).

[2] = Metabolic stability in rat liver microsomes; type: in vitro ADME; details: for half-life at 1 μM / microsomal CLint at 1 μM: Sprague-Dawley, pH 7.4, rat liver microsomes; for half-life at 1 μM: 0.25 mg/mL, read-out: T1/2 rat; for microsomal CLint at 1 μM: read-out: CL int. mic.; for parent compound remaining: rat microsomes
Experimental: (§1) The in vitro metabolic stability of the compound was evaluated in pooled human liver microsomes (HLM, 20 mg/mL), Sprague-Dawley rat liver microsomes (RLM, 20 mg/mL), and CD-1 mouse liver microsomes (MLM, 20 mg/mL), all purchased from GIBCO (Thermo Fisher Scientific). NADPH regenerating system (GentestTM) was prepared in potassium phosphate buffer (100 mM, pH 7.4). […] The reaction was stopped by adding acetonitrile, followed by vortex homogenization, sonication for 5 min, and centrifugation at 10,000 g for 5 min at 4 °C. The supernatants were transferred to glass vials for LC-MS/MS analysis. The half-life was estimated based on the area under the curve (AUC) through regression analysis of the concentration decay over time. This calculation was performed using the following formula: t1/2=LN2/Kel
(§2) Where LN is the neperian logarithm, and K is the slope of the regression of the LN of AUC as a function of time. Then, the microsomal intrinsic clearance (CLint, mic) was calculated using the following equation: CLint.mic=LN2/t1/2 x VI/PM
(§3) Where V is the incubation volume (µL), and PM is the microsomal protein concentration (mg). This intrinsic clearance can be extrapolated to the whole liver (CLint,hep) using the following equation: CLint.hep=CLint.mic x ML x LB
(§4) ML is the microsomal yield, and LB is the liver weight (g) per kilogram of body weight.
(§5) To ensure the linearity of the elimination phase and to avoid the influence of points outside the log-linear range, the points deviated from the expected first-order kinetic profile were excluded. The supernatants were analyzed by UPLC-Xevo-TQ-XS from Waters. Chromatographic separation was performed on an Acquity UPLC BEH C18 column (2.1 × 100 mm, 1.7 µm particle size), maintained at 40 °C. The mobile phases were (A) water with 0.1% formic acid and (B) acetonitrile with 0.1% formic acid. […] The total run time was 5 min.

[3] = Metabolic stability in human liver microsomes; type: in vitro ADME; details: for half-life at 1 μM / microsomal CLint at 1 μM: pooled liver microsomes, pH 7.4, human liver microsomes; for half-life at 1 μM: 0.25 mg/mL, read-out: T1/2 human; for microsomal CLint at 1 μM: read-out: CL int. mic.; for parent compound remaining: human microsomes
Experimental: as §1, §2, §3, §4, §5

[4] = Stability in HBSS buffer; type: physicochemical; details: 37°C, 2 hours
Experimental: The compounds were evaluated for chemical stability in Hanks’ Balanced Salt Solution (HBSS) over a 2-hour incubation period at 37°C. Stock solutions prepared in DMSO were diluted in HBSS to the desired test concentration. Samples were collected at time zero and after 2 hours of incubation. The remaining concentration of each compound was quantified by HPLC-UV, with stability assessed by comparing the percentage of compound remaining after 2 hours relative to the initial concentration.

[5] = Host cell cytotoxicity in the image-based assay (total host cells); details: rat, H9c2 rat cardiomyoblasts (infected with T. cruzi), 72 h treatment
Experimental: Tested compounds were dissolved and serially diluted in dimethylsulfoxide (DMSO) using a half-log dilution across six concentrations. Intermediate plates were prepared by diluting compounds 1:25 in DMEM (Dulbecco’s Modified Eagle Medium) with 10% FBS (Fetal Bovine Serum). The assay was based on [Fredo Naciuk et al. (2020)], with minor modifications. Briefly, T. cruzi trypomastigotes (from LLC-MK2 cultures, 6 days post-infection) were used to infect H9c2 rat cardiomyoblasts overnight (16–18 h) at MOI 1. After washing with PBS, cells were trypsinized and resuspended in DMEM at 2.3 × 10^4 cells/mL. Then, 65 μL per well was plated in 384-well plates and incubated for 24 h (37 °C, 5% CO2, >95% humidity). Subsequently, 7.5 μL of compound solution was added (final [DMSO] 0.4%). After 72 h of treatment, cells were fixed with 4% PFA and stained with Hoechst 33342 (4 μg/mL). Six images per well were acquired using the Operetta system (PerkinElmer) and analyzed with Columbus software to quantify infected cells (≥3 cytoplasmic parasite spots).

[6] = Oral bioavailability (plasma concentration); type: in vivo, BALB/c mice; details: mice; for concentration at 1 h: female, BALB/c, mouse, plasma, 50 mg/kg, oral administration, after 1 h; for plasma concentration (in words): single oral dose 50 mg/kg, 5-60 min
Experimental: For the in vivo assays, female BALB/c mice, aged between 8 and 9 weeks and weighing approximately 25 g, were used. […] After preparation, three animals received a single oral dose of 50 mg/kg for each compound via gavage. The control group received only the vehicle. Blood samples were collected at 5-, 15-, 30-, 45-, and 60-minute post-administration using submandibular vein puncture, retro-orbital collection, and intracardiac (terminal) puncture. The mice were maintained under inhalation anesthesia with 3% isoflurane throughout the sampling period to ensure animal welfare. Blood samples were transferred to heparin-containing tubes and processed by centrifugation (4,000 rpm, 10 min, 4 °C) to separate the plasma. The obtained plasma was transferred to clean vials and stored at -80 °C until analysis. Compound quantification was performed using ultra-performance liquid chromatography coupled with tandem mass spectrometry (UPLC-MS/MS).

`CC(C)Oc1ccc(NS(=O)(=O)c2cccc(NC(=O)c3cnccn3)c2)cc1` [AC-M110, N-(3-(N-(4-isopropoxyphenyl)sulfamoyl)phenyl)pyrazine-2-carboxamide] showed a logD at 90 min [1] of 3, a half-life at 1 μM [2] of 9 min and a microsomal CLint at 1 μM [2] of 61 µL/min/mg. The half-life at 1 μM [3] was 6 min, the microsomal CLint at 1 μM [3] was 97 µL/min/mg and the “chemical stability in HBSS buffer (in words)” value [4] was “remained chemically stable”. For the same molecule, the CC50 at 72 h [5] was 63 µM, the concentration at 1 h [6] was at most 1000 nM and the “plasma concentration (in words)” value [6] was “between EC50 and EC90”.

Molecule `COc1ccc(NS(=O)(=O)c2cccc(NC(=O)c3cnccn3)c2)cc1` [AC-R008, N-(3-(N-(4-methoxyphenyl)sulfamoyl)phenyl)pyrazine-2-carboxamide] has a logD at 90 min [1] of 2.5, a half-life at 1 μM [2] of 10 min and a microsomal CLint at 1 μM [2] of 55 µL/min/mg. The parent compound remaining ([2]; 5 min) was 55%, the parent compound remaining ([2]; 60 min) was “about 1%” and the parent compound remaining ([3]; 5 min) was 47%. For the same molecule, the parent compound remaining ([3]; 60 min) was “about 1%”, the half-life at 1 μM [3] was 7 min and the microsomal CLint at 1 μM [3] was 78 µL/min/mg. For the same molecule, the “chemical stability in HBSS buffer (in words)” value [4] was “remained chemically stable”, the CC50 at 72 h [5] was 99 µM and the concentration at 1 h [6] was at most 1000 nM. The “plasma concentration (in words)” value [6] was “between EC50 and EC90”.
